# Experimental data: patent publication US12138263B2, “Pyrazolo[3,4-b]pyrazine SHP2 phosphatase inhibitors and methods of use thereof” (Relay Therapeutics, Inc., priority 2018, dated 2024)
# Biological target: SHP2 (Homo sapiens (Human), UniProt Q06124)
# Assay: SHP2 allosteric inhibition assay (DiFMUP prompt fluorescence)
# Assay type: biochemical
# Conditions: Table 1; 0.25 nM SHP2 with 0.5 μM peptide IRS1_pY1172(dPEG8)pY1222, substrate DiFMUP 100 μM
# Chain of SHP2 (Q06124 whole entry): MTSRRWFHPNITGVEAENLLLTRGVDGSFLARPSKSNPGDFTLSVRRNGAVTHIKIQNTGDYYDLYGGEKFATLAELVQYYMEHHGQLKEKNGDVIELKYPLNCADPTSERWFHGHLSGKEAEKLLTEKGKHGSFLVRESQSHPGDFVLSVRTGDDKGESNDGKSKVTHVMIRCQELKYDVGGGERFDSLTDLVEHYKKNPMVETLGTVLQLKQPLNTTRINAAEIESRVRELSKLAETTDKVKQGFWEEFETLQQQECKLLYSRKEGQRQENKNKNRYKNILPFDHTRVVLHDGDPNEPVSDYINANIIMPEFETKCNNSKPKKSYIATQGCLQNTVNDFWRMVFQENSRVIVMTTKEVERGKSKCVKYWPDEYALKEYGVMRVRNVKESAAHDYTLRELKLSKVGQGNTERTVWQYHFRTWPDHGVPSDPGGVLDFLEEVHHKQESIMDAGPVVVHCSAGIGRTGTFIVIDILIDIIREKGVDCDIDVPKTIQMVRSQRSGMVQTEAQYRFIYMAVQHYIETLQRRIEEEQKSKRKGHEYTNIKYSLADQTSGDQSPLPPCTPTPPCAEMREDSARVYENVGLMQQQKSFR
row,Structure (SMILES),IC50
1,"C[C@@H]1OCC2(CCN(c3cnc4c(N5CCCc6cc(OS(=O)(=O)F)ccc65)n[nH]c4n3)CC2)[C@@H]1N [Compound 7A, 1-(6-((3S,4S)-4-amino-3-methyl-2-oxa-8-azaspiro[4.5]decan-8-yl)-1H-pyrazolo[3,4-b]pyrazin-3-yl)-1,2,3,4-tetrahydroquinolin-6-yl Sulfurofluoridate]",< 1000 nM

# Same assay, conditions: Table 2; 0.25 nM SHP2 with 0.5 μM peptide IRS1_pY1172(dPEG8)pY1222, substrate DiFMUP 100 μM
row,Structure (SMILES),IC50
1,CN(CCN)C(=O)c1cnc2c(-c3cccc(Cl)c3F)n[nH]c2n1 [Compound 7B],≥ 10000 nM
2,"COC(=O)C1(c2cnc3c(-c4cccc(Cl)c4F)n[nH]c3n2)CCNCC1 [Compound 1B, methyl 4-(3-(3-chloro-2-fluorophenyl)-1H-pyrazolo[3,4-b]pyrazin-6-yl)piperidine-4-carboxylate]",< 1000 nM
3,"NCc1ccccc1-c1cnc2c(N3CCCc4ncccc43)n[nH]c2n1 [Compound 10B, (2-(3-(3,4-dihydro-1,5-naphthyridin-1(2H)-yl)-1H-pyrazolo[3,4-b]pyrazin-6-yl)phenyl)methanamine]",≥ 10000 nM

# Same assay, conditions: Table 3; 0.25 nM SHP2 with 0.5 μM peptide IRS1_pY1172(dPEG8)pY1222, substrate DiFMUP 100 μM
row,Structure (SMILES),IC50
1,"CC1(CN)CCN(c2nc3[nH]nc(N4CCCc5ncccc54)c3nc2C(N)=O)CC1 [Compound 8C, 6-[4-(aminomethyl)-4-methylpiperidin-1-yl]-3-(1,2,3,4-tetrahydro-1,5-naphthyridin-1-yl)-1H-pyrazolo[3,4-b]pyrazine-5-carboxamide]",< 1000 nM
2,"Cc1nc2c(N3CCCc4ncccc43)n[nH]c2nc1N1CCC(C)(CN)CC1 [Compound 6C, (1-(3-(3,4-dihydro-1,5-naphthyridin-1(2H)-yl)-5-methyl-1H-pyrazolo[3,4-b]pyrazin-6-yl)-4-methylpiperidin-4-yl)methanamine]",< 1000 nM
3,C[C@@H]1OCC2(CCN(c3nc4[nH]nc(N5CC[C@H](C)c6cc(C#N)ccc65)c4nc3CO)CC2)[C@@H]1N [Compound 17C],< 1000 nM
4,"CC1(CN)CCN(c2nc3[nH]nc(N4CCCc5ncccc54)c3nc2CO)CC1 [Compound 11C, (6-(4-(aminomethyl)-4-methylpiperidin-1-yl)-3-(3,4-dihydro-1,5-naphthyridin-1(2H)-yl)-1H-pyrazolo[3,4-b]pyrazin-5-yl)methanol]",< 1000 nM
5,CC1(CN)CCN(c2nc3[nH]nc(-c4cccc(Cl)c4F)c3nc2C(N)=O)CC1 [Compound 2C],< 1000 nM
6,"CC1(N)CCN(c2nc3[nH]nc(-c4cccc(Cl)c4F)c3nc2C(N)=O)CC1 [Compound 3C, 6-(4-amino-4-methylpiperidin-1-yl)-3-(3-chloro-2-fluorophenyl)-1H-pyrazolo[3,4-b]pyrazine-5-carboxamide]",< 1000 nM
7,"C[C@@H]1OCC2(CCN(c3nc4[nH]nc(N5CCCc6nc(-c7ccn[nH]7)ccc65)c4nc3CO)CC2)[C@@H]1N [Compound 20C, (3-(6-(1H-pyrazol-5-yl)-3,4-dihydro-1,5-naphthyridin-1(2H)-yl)-6-((3S,4S)-4-amino-3-methyl-2-oxa-8-azaspiro[4.5]decan-8-yl)-1H-pyrazolo[3,4-b]pyrazin-5-yl)methanol]",< 1000 nM
8,"Cc1nc2c(N3CCCc4ncccc43)n[nH]c2nc1N1CCC2(CC1)CO[C@@H](C)[C@H]2N [Compound 13C, (3S,4S)-8-(3-(3,4-dihydro-1,5-naphthyridin-1(2H)-yl)-5-methyl-1H-pyrazolo[3,4-b]pyrazin-6-yl)-3-methyl-2-oxa-8-azaspiro[4.5]decan-4-amine]",< 1000 nM

# Same assay, conditions: Table 4; 0.25 nM SHP2 with 0.5 μM peptide IRS1_pY1172(dPEG8)pY1222, substrate DiFMUP 100 μM
row,Structure (SMILES),IC50
1,"CN(c1cnc2c(N3CCCc4ncccc43)n[nH]c2n1)c1ncccc1CCN [Compound 3D, N-(3-(2-aminoethyl)pyridin-2-yl)-3-(3,4-dihydro-1,5-naphthyridin-1(2H)-yl)-N-methyl-1H-pyrazolo[3,4-b]pyrazin-6-amine]",1000 to 10000 nM
